According to patent US20200079773A1, “CARBOXYLIC ACID DERIVATIVES OF PYRIDOQUINAZOLINES USEFUL AS PROTEIN KINASE INHIBITORS” (ONCOSTELLAE, S.L., priority 2017, published 2020):

Tests used:
Format in all cases: biochemical
Human MLK3 = target: T1, Human MLK3 (Homo sapiens, UniProt Q16584); test: MLK3 activity inhibition test (Reaction Biology kit, 33P ATP filter assay); details: MBP 10 μM, ATP 10 μM
T1 construct: purchased Reaction Biology MLK3
Procedure: MLK3 Activity Inhibition Test
Activity test was carried out using the kit from Reaction Biology (CAT #: MLK3). The test uses enzyme Human MLK3 and substrates are MBP (Myelin Basic Protein, HGNC ID:6925) 10 μM and ATP 10 μM. Other reagents are the following: Base Reaction buffer; 20 mM Hepes (pH 7.5), 10 mM MgCl2, 1 mM EGTA, 0.02% Brij35, 0.02 mg/ml BSA, 0.1 mM Na3VO4, 2 mM DTT, 1% DMSO.
The reaction was carried out following the instructions of manufacturer. Briefly, kinase/substrate pairs were prepared in reaction buffer. Compounds were delivered into the reaction, followed 20 minutes later by addition of a mixture of ATP (Sigma, St. Louis Mo.) and ^33P ATP (Perkin Elmer, Waltham Mass.) to a final concentration of 10 μM. Reactions were carried out at room temperature for 120 min, followed by spotting of the reactions onto P81 ion exchange filter paper (Whatman Inc., Piscataway, N.J.). Unbound phosphate was removed by extensive washing of filters in 0.75% phosphoric acid. […] IC50 values and curve fits were obtained using Prism (GraphPad Software).

JAK1 = target: T2, JAK1 (Homo sapiens, UniProt P23458); test: Functional assay of protein kinases (Caliper mobility shift), JAK1; details: ATP 100 μM, 150 min incubation
T2 construct: purchased Carna Biosciences 08-144
Procedure: (§1) Functional Assays of Protein Kinases
(§2) The functional assays of protein kinases were carried out in 384-well plates using a final volume of 30 μl. […] The reaction was reads in a “Caliper EzReader LabChip 3000” (Caliper, Hopkinton, Mass.) reader, based on electrophoretic mobility of the fluorescent substrate and the phosphorylated product.
(§3) The inhibition percentages were calculated by comparison between control reactions, for 100% of inhibition and reactions with only DMSO for 0% of inhibition.

JAK2 = target: T3, JAK2 (Homo sapiens, UniProt O60674); test: Functional assay of protein kinases (Caliper mobility shift), JAK2; details: ATP 300 μM, 30 min incubation
T3 construct: purchased Carna Biosciences 08-045
Procedure: as §1, §2, §3

JAK3 = target: T4, JAK3 (Homo sapiens, UniProt P52333); test: Functional assay of protein kinases (Caliper mobility shift), JAK3; details: ATP 8 μM, 30 min incubation
T4 construct: purchased Carna Biosciences 08-046
Procedure: as §1, §2, §3

TYK2 = target: T5, TYK2 (Homo sapiens, UniProt P29597); test: Functional assay of protein kinases (Caliper mobility shift), TYK2; details: ATP 20 μM, 45 min incubation
T5 construct: purchased Carna Biosciences 08-147
T5 sequence (P29597 871-1187 limits assumed): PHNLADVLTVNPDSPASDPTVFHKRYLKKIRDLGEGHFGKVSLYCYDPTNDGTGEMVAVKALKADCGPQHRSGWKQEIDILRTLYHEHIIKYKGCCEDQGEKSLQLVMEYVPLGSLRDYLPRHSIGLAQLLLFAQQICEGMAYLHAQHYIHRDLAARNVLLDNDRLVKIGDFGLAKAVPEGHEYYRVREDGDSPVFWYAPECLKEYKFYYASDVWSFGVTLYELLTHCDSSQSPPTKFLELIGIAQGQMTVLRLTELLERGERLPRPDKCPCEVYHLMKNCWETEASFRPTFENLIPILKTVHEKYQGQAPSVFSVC
Procedure: as §1, §2, §3

T2 sequence (P23458 850-1154 limits assumed): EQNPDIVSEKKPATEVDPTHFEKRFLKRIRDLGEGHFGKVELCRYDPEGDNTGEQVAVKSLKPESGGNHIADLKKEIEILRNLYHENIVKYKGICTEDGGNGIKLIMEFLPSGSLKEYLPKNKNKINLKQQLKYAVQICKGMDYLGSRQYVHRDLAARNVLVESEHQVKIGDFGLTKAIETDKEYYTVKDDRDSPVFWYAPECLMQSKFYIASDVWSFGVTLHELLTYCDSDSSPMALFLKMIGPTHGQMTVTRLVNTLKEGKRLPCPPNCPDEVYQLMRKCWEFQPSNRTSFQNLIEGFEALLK
T4 sequence (P52333 795-1124 limits assumed): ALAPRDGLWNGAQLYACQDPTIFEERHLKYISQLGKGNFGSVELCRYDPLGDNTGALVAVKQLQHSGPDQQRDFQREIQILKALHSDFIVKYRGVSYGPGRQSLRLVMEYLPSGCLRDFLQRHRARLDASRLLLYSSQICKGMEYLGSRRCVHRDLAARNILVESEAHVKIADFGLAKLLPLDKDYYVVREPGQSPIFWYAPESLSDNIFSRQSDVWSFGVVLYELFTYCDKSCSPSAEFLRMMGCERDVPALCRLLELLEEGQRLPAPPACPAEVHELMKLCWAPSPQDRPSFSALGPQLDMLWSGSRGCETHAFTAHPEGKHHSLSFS
T3 sequence (O60674 826-1132 limits assumed): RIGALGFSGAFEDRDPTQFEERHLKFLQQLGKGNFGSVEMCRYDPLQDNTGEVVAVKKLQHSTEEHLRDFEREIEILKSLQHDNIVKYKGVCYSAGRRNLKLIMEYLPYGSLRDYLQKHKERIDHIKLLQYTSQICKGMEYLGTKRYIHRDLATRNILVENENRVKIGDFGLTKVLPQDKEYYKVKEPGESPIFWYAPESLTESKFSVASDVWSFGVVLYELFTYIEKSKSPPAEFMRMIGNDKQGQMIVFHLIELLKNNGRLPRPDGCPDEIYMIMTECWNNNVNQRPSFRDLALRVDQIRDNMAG
T1 sequence (Q16584 whole entry): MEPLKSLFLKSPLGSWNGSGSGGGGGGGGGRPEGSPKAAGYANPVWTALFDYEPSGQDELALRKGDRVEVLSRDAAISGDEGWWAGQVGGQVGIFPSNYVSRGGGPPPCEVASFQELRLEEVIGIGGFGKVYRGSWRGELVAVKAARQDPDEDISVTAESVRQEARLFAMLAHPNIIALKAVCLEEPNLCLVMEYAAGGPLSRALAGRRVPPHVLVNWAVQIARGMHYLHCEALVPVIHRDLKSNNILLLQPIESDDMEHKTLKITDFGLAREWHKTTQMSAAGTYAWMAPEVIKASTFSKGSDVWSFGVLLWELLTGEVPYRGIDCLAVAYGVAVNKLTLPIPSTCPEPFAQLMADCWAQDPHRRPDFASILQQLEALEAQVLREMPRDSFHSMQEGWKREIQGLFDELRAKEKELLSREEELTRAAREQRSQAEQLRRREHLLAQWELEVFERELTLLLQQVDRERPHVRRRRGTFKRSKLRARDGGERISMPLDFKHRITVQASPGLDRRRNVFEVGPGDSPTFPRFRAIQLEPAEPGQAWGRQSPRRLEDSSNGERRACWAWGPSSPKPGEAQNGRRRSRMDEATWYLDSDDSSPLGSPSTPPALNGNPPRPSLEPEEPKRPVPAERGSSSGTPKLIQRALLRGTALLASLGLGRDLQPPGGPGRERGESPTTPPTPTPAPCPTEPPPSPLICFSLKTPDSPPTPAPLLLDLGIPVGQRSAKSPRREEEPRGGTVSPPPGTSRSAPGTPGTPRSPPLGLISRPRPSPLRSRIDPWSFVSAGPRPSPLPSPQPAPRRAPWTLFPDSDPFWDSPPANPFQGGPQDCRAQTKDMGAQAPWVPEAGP

O=C(N[C@H]1CC[C@@H](C(=O)O)CC1)c1cccn2c(=O)c3cc(C4CC4)ccc3nc12 [Example 3, (1S,4S)-4-(2-cyclopropyl-11-oxo-11H-pyrido[2,1-b]quinazoline-6-carboxamido)cyclohexane-1-carboxylic acid]
IC50 (Human MLK3): < 100 nM
IC50 (JAK1): ≥ 1000 nM
IC50 (JAK2): ≥ 1000 nM
IC50 (JAK3): < 100 nM
IC50 (TYK2): < 100 nM

O=C(NC12CCC(C(=O)O)(CC1)CC2)c1cccn2c(=O)c3cc(C4CC4)ccc3nc12 [Example 6, 4-(2-cyclopropyl-11-oxo-11H-pyrido[2,1-b]quinazoline-6-carboxamido)bicyclo[2.2.2]octane-1-carboxyli acid]
IC50 (Human MLK3): < 100 nM
IC50 (JAK1): ≥ 1000 nM
IC50 (JAK2): ≥ 1000 nM
IC50 (JAK3): 100 to 1000 nM
IC50 (TYK2): 100 to 1000 nM

O=C(NC12CCC(C(=O)O)(CC1)C2)c1cccn2c(=O)c3cc(C4CC4)ccc3nc12 [Example 7, 4-(2-cyclpropyl-11-oxo-11H-pyrido[2,1-b]quinazoline-6-carboxamido)bicyclo[2.2.1]heptane-1-carboxylic acid]
IC50 (JAK1): ≥ 1000 nM
IC50 (JAK2): ≥ 1000 nM
IC50 (JAK3): 100 to 1000 nM
IC50 (TYK2): 100 to 1000 nM

Cc1cc(C(=O)NC2CCC(C(=O)O)CC2)c2nc3ccccc3c(=O)n2c1 (centres unmarked) [Example 10, 4-(8-methyl-11-oxo-11H-pyrido[2,1-b]quinazoline-6-carboxamido)cyclohexane-1-carboxylic acid]
IC50 (Human MLK3): ≥ 1000 nM
IC50 (JAK1): ≥ 1000 nM
IC50 (JAK2): ≥ 1000 nM
IC50 (JAK3): 100 to 1000 nM
IC50 (TYK2): < 100 nM

Cc1cc(C(=O)N[C@H]2CC[C@@H](C(=O)O)CC2)c2nc3ccccc3c(=O)n2c1 [Example 11, (1S,4S)-4-(8-methyl-11-oxo-11H-pyrido[2,1-b]quinazoline-6-carboxamido)cyclohexane-1-carboxylic acid]
IC50 (JAK1): ≥ 1000 nM
IC50 (JAK2): ≥ 1000 nM
IC50 (JAK3): ≥ 1000 nM
IC50 (TYK2): 100 to 1000 nM

O=C(NC1CCC(C(=O)O)CC1)c1cccn2c(=O)c3ccccc3nc12 (centres unmarked) [Example 12, 4-(11-oxo-11H-pyrido[2,1-b]quinazoline-6-carboxamido)cyclohexane-1-carboxylic acid]
IC50 (JAK1): ≥ 1000 nM
IC50 (JAK2): ≥ 1000 nM
IC50 (JAK3): 100 to 1000 nM
IC50 (TYK2): 100 to 1000 nM

O=C(N[C@H]1CC[C@@H](C(=O)O)CC1)c1cccn2c(=O)c3ccccc3nc12 [Example 13, (1S,4S)-4-(11-oxo-11H-pyrido[2,1-b]quinazoline-6-carboxamido)cyclohexane-1-carboxylic add]
IC50 (Human MLK3): 100 to 1000 nM
IC50 (JAK1): ≥ 1000 nM
IC50 (JAK2): ≥ 1000 nM
IC50 (JAK3): 100 to 1000 nM
IC50 (TYK2): 100 to 1000 nM

O=C(N[C@H]1CC[C@@H](C(=O)O)CC1)c1cccn2c(=O)c3cc(-c4ccccc4)ccc3nc12 [Example 15, (1S,4S)-4-(11-oxo-2-phenyl-11H-pyrido[2,1-b]quinazoline-6-carboxamido)cyclohexane-1-carboxylic acid]
IC50 (JAK1): ≥ 1000 nM
IC50 (JAK2): ≥ 1000 nM
IC50 (JAK3): < 100 nM
IC50 (TYK2): < 100 nM

COc1ccc2nc3c(C(=O)NC4CCC(C(=O)O)CC4)cccn3c(=O)c2c1 (centres unmarked) [Example 20, 4-(2-methoxy-11-oxo-11H-pyrido[2,1-b]quinazoline-6-carboxamido)cyclohexane-1-carboxylic acid]
IC50 (Human MLK3): < 100 nM
IC50 (JAK3): < 100 nM
IC50 (TYK2): 100 to 1000 nM

O=C(NC1CCC(C(=O)O)CC1)c1cccn2c(=O)c3cc(Cl)ccc3nc12 (centres unmarked) [Example 23, 4-(2-chloro-11-oxo-11H-pyrido[2,1-b]quinazoline-6-carboxamido)cyclohexane-1-carboxylic add]
IC50 (JAK1): ≥ 1000 nM
IC50 (JAK2): ≥ 1000 nM
IC50 (JAK3): 100 to 1000 nM
IC50 (TYK2): 100 to 1000 nM

O=C(NC1CCC(C(=O)O)CC1)c1cccn2c(=O)c3cc(Br)ccc3nc12 (centres unmarked) [Example 24, 4-(2-bromo-11-oxo-11H-pyrido[2,1-b]quinazoline-6-carboxamido)cyclohexane-1-carboxylic acid]
IC50 (JAK1): ≥ 1000 nM
IC50 (JAK2): ≥ 1000 nM
IC50 (JAK3): 100 to 1000 nM
IC50 (TYK2): 100 to 1000 nM
